Test results: the NIST ThermoML archive (doi:10.1007/s10765-016-2109-2)

Assay: molar heat capacity at constant volume
Settings: Liquid, Vacuum adiabatic calorimetry

CCCCCC[n+]1ccn(C)c1.O=S(=O)([N-]S(=O)(=O)C(F)(F)F)C(F)(F)F
Settings | molar heat capacity at constant volume [J/K/mol]
325.26 K, Mass density=1344.14 kg/m3 | 609.39
325.39 K, Mass density=1344.14 kg/m3 | 608.49
325.51 K, Mass density=1344.14 kg/m3 | 608.94
325.63 K, Mass density=1344.14 kg/m3 | 608.49
325.75 K, Mass density=1344.14 kg/m3 | 609.83
325.88 K, Mass density=1344.14 kg/m3 | 608.94
326 K, Mass density=1344.14 kg/m3 | 608.04
326.13 K, Mass density=1344.14 kg/m3 | 606.7
326.26 K, Mass density=1344.14 kg/m3 | 608.49
328.58 K, Mass density=1344.14 kg/m3 | 609.83
328.7 K, Mass density=1344.14 kg/m3 | 608.49
328.82 K, Mass density=1344.14 kg/m3 | 607.6
328.94 K, Mass density=1344.14 kg/m3 | 606.25
329.07 K, Mass density=1344.14 kg/m3 | 607.15
329.19 K, Mass density=1344.14 kg/m3 | 609.39
329.31 K, Mass density=1344.14 kg/m3 | 609.83
329.43 K, Mass density=1344.14 kg/m3 | 605.36
333.09 K, Mass density=1344.14 kg/m3 | 612.07
333.21 K, Mass density=1344.14 kg/m3 | 606.25
333.33 K, Mass density=1344.14 kg/m3 | 609.39
333.45 K, Mass density=1344.14 kg/m3 | 613.86
333.57 K, Mass density=1344.14 kg/m3 | 607.6
333.7 K, Mass density=1344.14 kg/m3 | 610.73
333.82 K, Mass density=1344.14 kg/m3 | 613.41
333.94 K, Mass density=1344.14 kg/m3 | 609.83
341.28 K, Mass density=1344.14 kg/m3 | 615.2
341.4 K, Mass density=1344.14 kg/m3 | 610.73
341.52 K, Mass density=1344.14 kg/m3 | 617.44
341.64 K, Mass density=1344.14 kg/m3 | 612.96
341.76 K, Mass density=1344.14 kg/m3 | 620.12
341.88 K, Mass density=1344.14 kg/m3 | 615.65
342 K, Mass density=1344.14 kg/m3 | 614.75
342.12 K, Mass density=1344.14 kg/m3 | 618.78
348.64 K, Mass density=1344.14 kg/m3 | 619.23
348.76 K, Mass density=1344.14 kg/m3 | 617.89
348.88 K, Mass density=1344.14 kg/m3 | 621.91
348.99 K, Mass density=1344.14 kg/m3 | 620.12
349.11 K, Mass density=1344.14 kg/m3 | 618.78
349.23 K, Mass density=1344.14 kg/m3 | 623.7
349.35 K, Mass density=1344.14 kg/m3 | 617.44
349.47 K, Mass density=1344.14 kg/m3 | 622.81
349.58 K, Mass density=1344.14 kg/m3 | 619.68
350.36 K, Mass density=1323.92 kg/m3 | 625.05
350.41 K, Mass density=1323.92 kg/m3 | 624.15
350.53 K, Mass density=1323.92 kg/m3 | 623.26
350.64 K, Mass density=1323.92 kg/m3 | 622.36
350.76 K, Mass density=1323.92 kg/m3 | 625.49
350.88 K, Mass density=1323.92 kg/m3 | 624.6
350.99 K, Mass density=1323.92 kg/m3 | 621.02
351.11 K, Mass density=1323.92 kg/m3 | 621.91
351.23 K, Mass density=1323.92 kg/m3 | 623.26
351.35 K, Mass density=1323.92 kg/m3 | 620.12
351.46 K, Mass density=1323.92 kg/m3 | 621.02
351.58 K, Mass density=1323.92 kg/m3 | 622.36
351.7 K, Mass density=1323.92 kg/m3 | 620.57
351.82 K, Mass density=1323.92 kg/m3 | 621.47
351.93 K, Mass density=1323.92 kg/m3 | 619.68
352.03 K, Mass density=1323.92 kg/m3 | 621.47
360.03 K, Mass density=1323.92 kg/m3 | 626.39
360.19 K, Mass density=1323.92 kg/m3 | 624.15
360.3 K, Mass density=1323.92 kg/m3 | 628.18
360.42 K, Mass density=1323.92 kg/m3 | 622.81
360.53 K, Mass density=1323.92 kg/m3 | 625.05
360.65 K, Mass density=1323.92 kg/m3 | 622.36
360.76 K, Mass density=1323.92 kg/m3 | 623.26
360.88 K, Mass density=1323.92 kg/m3 | 621.02
360.99 K, Mass density=1323.92 kg/m3 | 621.47
361.11 K, Mass density=1323.92 kg/m3 | 622.81
361.22 K, Mass density=1323.92 kg/m3 | 620.57
361.34 K, Mass density=1323.92 kg/m3 | 627.28
365.26 K, Mass density=1323.92 kg/m3 | 624.15
365.35 K, Mass density=1323.92 kg/m3 | 629.52
365.47 K, Mass density=1323.92 kg/m3 | 627.28
365.58 K, Mass density=1323.92 kg/m3 | 625.49
365.69 K, Mass density=1323.92 kg/m3 | 632.65
365.81 K, Mass density=1323.92 kg/m3 | 622.36
365.92 K, Mass density=1323.92 kg/m3 | 629.07
366.04 K, Mass density=1323.92 kg/m3 | 627.28
366.15 K, Mass density=1323.92 kg/m3 | 630.41
366.27 K, Mass density=1323.92 kg/m3 | 623.7
366.38 K, Mass density=1323.92 kg/m3 | 629.97
372.87 K, Mass density=1323.92 kg/m3 | 635.78
372.96 K, Mass density=1323.92 kg/m3 | 634.44
373.07 K, Mass density=1323.92 kg/m3 | 631.76
373.18 K, Mass density=1323.92 kg/m3 | 633.1
373.29 K, Mass density=1323.92 kg/m3 | 636.68
373.41 K, Mass density=1323.92 kg/m3 | 629.07
373.52 K, Mass density=1323.92 kg/m3 | 634.89
373.63 K, Mass density=1323.92 kg/m3 | 629.97
373.74 K, Mass density=1323.92 kg/m3 | 631.31
373.86 K, Mass density=1323.92 kg/m3 | 638.02
373.97 K, Mass density=1323.92 kg/m3 | 636.68
374.08 K, Mass density=1323.92 kg/m3 | 638.92
